Consider 1 substance from publication PMC9764201, “Half-calcified calmodulin promotes basal activity and inactivation of the L-type calcium channel CaV1.2” (The Journal of Biological Chemistry, 2022).

For this assay, the system named is CaV1.2. The assay is described as follows: Cell-attached single-channel recording of CaV1.2 with ectopic CaM in HEK 293T/17 cells. The format is cell-based, rat. The note with it: 110 mM Ba2+, 0 mV from -80 mV; mean±SEM (Table S3). As to the method: HEK 293T/17 cells (ATCC) were maintained as previously described ([15], [53]). For electrophysiology, Lipofectamine 2000 (Invitrogene) or JetPrime (Polyplus Transfection) was used to transiently transfect cells with indicated plasmid DNAs in 35 mm dishes. For biochemistry experiments, transient transfection of HEK 293T/17 cells in […] dishes was achieved using either JetPrime or, as previously described ([15], [53]), the calcium phosphate method. Cells were cotransfected with plasmids encoding the pore-forming α11.2 subunit N-terminally tagged with eCFP ([15], [53]) or mCherry ([54]) plus pGWIH-based plasmids encoding the auxiliary subunits rat β2A ([55]) and rabbit α2δ-1 ([56]) as previously described ([15], [53]). For all transfections, equimolar ratio of 1:1:1 was used for CaV1.2 channel subunits and later further optimized (JetPrime) for CaM (at ratio of 1:1:1:0.5 for α11.2:β2A:α2δ−1:CaM). Rat brain α11.2 (GenBank ID: M67515.1) N-terminally fused to eCFP was utilized as previously described ([15]). The point mutations in plasmids encoding single-residue I1654A, Y1657D (this report), and K1662E exchanges in α11.2 were generated via QuikChange II as previously described ([15], [53]) using N-terminally eCFP ([15], [53]) or mCherry tagged ([54]) rat brain α11.2 plasmid template DNAs. We studied CDI using mCherry-tagged α11.2 subunit coexpressed with the other, untagged CaV1.2 subunits and WT CaM or the calmodulin 34 mutant CaM34 (kindly provided by JP Adelman, ([8])). For some biochemical experiments shown in Fig. S2, YFP-tagged CaM was used ([32]).
Single-channel recordings were performed as described previously ([15], [31]). In brief, low noise raw data were recorded with an Axopatch 200B amplifier and data were sampled at 10 kHz with a low-pass filter at 2 kHz (3 dB, four pole Bessel) and digitalized with a Digidata 1440 digitizer. Recording electrodes were pulled from borosilicate capillary glass ([…]) with a Flaming/Brown micropipette puller (Model P-97, Sutter Instruments), heat polished, and coated with Sylgard (Sylgard 289) until close to the electrode tip. Electrode resistance in solution was usually 5 to 10 MΩ. To keep the membrane potential close to 0 mV the extracellular bath solution contained (in mM) 120 K-Glutamate, 25 KCl, 2 MgCl2, 1 CaCl2, 10 EGTA, 10 Hepes, and 2 Na2-ATP pH 7.4 (KOH). The intracellular pipette solution contained (in mM) 110 BaCl2 and 10 Hepes, adjusted to pH 7.4 (TEA-OH). Cells were depolarized for 2 s from a holding potential of -80 mV to 0 mV every 7 s. Event lists were created from raw Ba^2+ currents after leak and capacity transients were digitally subtracted by pClamp 10. Unitary current events were then analyzed based on the half-height criterium ([57]) using the single-channel software provided by pClamp 10.
For statistical analysis, single-channel parameters were corrected by the channel number (k), respectively, the maximum of simultaneously open channels (PMAX). The number of channels in the patch was estimated based on the observed simultaneous openings and is a precise parameter for k < 4, as included in this article and originally described by R. Horn ([58]). On average, 100 to 200 Ba^2+ current traces were recorded for each cell for each experimental condition for an appropriate statistical analysis.
Table S3. Effects of ectopically expressed CaM and CaM34 on CaV1.2 as determined by single channel recordings with 110 mM Ba2+. HEK 293T/17 cells were transiently transfected with eCFP-tagged rat CaV1.2, α2δ1 and β2a alone or together with WT CaM (+CaM) or CaM34 (+CaM34). Parameters were corrected for the number of channels (k) in the patch. Recordings were obtained at a test potential of 0 mV from a holding potential of -80 mV. For all parameters, statistical significance p was determined for CaV1.2 without ectopic CaM expression and for CaV1.2 plus CaM34 agains CaV1.2 plus wt CaM (one-way ANOVA followed by Bonferroni test). […]

For “CaV1.2: WT rat brain α11.2 with α2δ1 and β2A expressed in HEK 293T/17 cells”, the Availability was determined as 77±7%, the IPeak amounted to 19.7±4.0 fA, the “MEA (mean ensemble average)” value is recorded as 9.6±2.4 fA and the “MOT (mean open time)” value came out at 1.2 ± 0.2 ms. The same substance registered a Po of 2.3±0.6% and a unitary i of 0.81±0.03 pA.
